# Experimental data reported in patent US20100129290A1, “SMART CONTRAST AGENT AND DETECTION METHOD FOR DETECTING TRANSITION METAL IONS” (I.S.T. corporation, priority 2008, published 2010).
# Where no end group is shown, it is not given here. The star is where a group is joined. dabcyl = dabcyl quencher on the Lys side chain, CN(C)c1ccc(/N=N/c2ccc(C(=O)*)cc2)cc1; K(FAM) = lysine with FAM attached to its side chain
# Key:
# [1] = 1H longitudinal relaxivity (NMRD); assay type: physicochemical; details: salt only, 50 mM NEM, pH=7.0, 20 MHz
# Experimental: Smart contrast agents with larger relaxivity values imply lower MRI detection limits for the target species and are advantageous over contrast agents with lower relaxivity values.
# The incubation was conducted in the dark, at room temperature, and lasted for 3 hours. The longitudinal relaxivity was measured at field strengths between 0.01 MHz to 20 MHz. […] The underlining mechanisms responsible for the observed behavior have not been well characterized to date, but likely contain contributions from several factors including gadolinium-copper ion exchange, alterations in peptide solubility, peptide structural rearrangements, remaining synthesis impurities, and buffer interactions with both copper and gadolinium ions.
# [2] = Fluorescence (FRET) titration with copper(II) ions; assay type: binding; details: for effect of the mutation on copper binding: mutant versus P1P
# [3] = Fluorescence (FRET) titration with zinc(II) ions; assay type: binding; details: for effect of the mutation on zinc binding: mutant versus P1P
# [4] = Fluorescence (FRET) titration with calcium(II) ions; assay type: binding
# [5] = Fluorescence (FRET) titration with magnesium(II) ions; assay type: binding
# [6] = Fluorescence (FRET) titration with gadolinium(III) ions; assay type: binding; details: for Gd^+3 binding, effect on FRET activity: 10 μM peptide, pH dependence
# [7] = test system: endogenous β-amyloid peptides; details: cerebrospinal fluid; read-out: EC50 for conversion of endogenous β-amyloid peptides into insoluble aggregates; cited from earlier work
# Aβ accumulation = details: transgenic mice; cited from earlier work
compound,measurement,setting,value
[Cl][Gd]([Cl])[Cl] [GdCl3],relaxivity,[1],5.1 mM⁻¹ s⁻¹
"K(FAM)PHGGGWGAK(dabcyl) ({K(FAM)}-PHGGGWGAK(dabcyl)) [P18, mutant version of P1P, glutamine to alanine]",effect of the mutation on copper binding,[2],"either had no effect, or even increased the peptide binding strength"
same,effect of the mutation on binding affinity for copper,[2]; pH ≦7,little effect
same,effect of the mutation on binding activity with copper,[2]; pH=7.6,increase the binding activity
same,effect of the mutation on zinc binding,[3],"either had no effect, or even increased the peptide binding strength"
same,effect of the mutation on binding affinity for zinc,[3]; pH ≦7,little effect
same,effect of the mutation on binding activity with zinc,[3]; pH=7.6,increase the binding activity
same,binding with Ca^+2,[4],No binding
same,binding with Mg^+2,[5],No binding
same,"Gd^+3 binding, effect on FRET activity",[6],marked increase in Gd^+3 binding with increasing pH
same,effect of the mutation on affinity of Gd^+3 ions,[6]; versus base P1P peptide,reduce the affinity
O=S(=O)([O-])[O-].[Cu+2] [CuSO4],relaxivity,[1],0.4 mM⁻¹ s⁻¹
[Zn+2] [zinc ions],EC50,[7],120 to 140 µM
Oc1c(I)cc(Cl)c2cccnc12 [clioquinol],inhibition of Aβ accumulation,Aβ accumulation,significant inhibition of Aβ accumulation
"K(FAM)PAGGGWGQK(dabcyl) ({K(FAM)}-PAGGGWGQK(dabcyl)) [P17, mutant version of P1P, histidine to alanine]",effect of the mutation on copper binding,[2],most critical
same,effect of the mutation on zinc binding,[3],most critical
same,binding with Ca^+2,[4],No binding
same,binding with Mg^+2,[5],No binding
same,"Gd^+3 binding, effect on FRET activity",[6],marked increase in Gd^+3 binding with increasing pH
"K(FAM)PHGGGAGQK(dabcyl) ({K(FAM)}-PHGGGAGQK(dabcyl)) [P16, mutant version of P1P, tryptophan to alanine]",effect of the mutation on copper binding,[2],significant effect
same,effect of the mutation on zinc binding,[3],significant effect
same,binding with Ca^+2,[4],No binding
same,binding with Mg^+2,[5],No binding
same,"Gd^+3 binding, effect on FRET activity",[6],marked increase in Gd^+3 binding with increasing pH
